“Also recorded” adds a separate entry of the source.
Tests used:
Myc-CAP-PTEN^−/− cells = assay: Myc-CAP-PTEN−/− cells in vitro (western blotting, cytokine array); assay type: cell-based, mouse; details: 1 μM, 24 hours
Protocol: FIGS. 35A-35D. […] (35A) Myc-CAP-PTEN^−/− cells were treated with copanlisib […] (IC90 concentration) in vitro for 24 hours, and protein extracts were harvested for western blotting analysis with the indicated antibodies to analyze PI3K activation. (35B) Supernatants from (35A) were harvested for cytokine array profiling. n=3 independent in vitro experiments. (35C) Mice bearing Myc-CAP-PTEN^−/− established syngeneic tumors (200 mm^3) were treated with copanlisib (14 mg/kg, every other day, until tumors reached 2000 mm^3). Tumor volumes were monitored daily and graphed. (35D) At the end of treatment, tumors were analyzed by flow cytometry for tumor infiltrating immune cell subsets. n=5 mice per group.
FIGS. 49A and 49B. PTEN-deficient cancer cells have diminished STING expression that can be restored by […] and pan-PI3K inhibitors. (49A) Isogenic MC38, Myc-CAP, ID8, and TRAMP cells (−/+ PTEN) were analyzed for STING mRNA and protein expression by qRT-PCR and western blotting, respectively. (49B) Myc-CAP-PTEN^−/− cells were treated with GSK′771 (PI3Kβ-selective inhibitor, 1 μM) or BKM120 (pan-PI3K inhibitor, 1 μM) for 24 hours, and proteins were analyzed for STING expression and PI3K activation by western blotting.
Cancer Cell Lines and in vitro drug treatments. Transgenic c-myc^hi prostate tumor derived cell line, Myc-CAP and TRAMPC1, ovarian cancer cell line ID8 and murine colon adenocarcinoma line MC38 were obtained from the American Type Culture Collection (ATCC) and passaged in either 1×RPMI/1×DMEM (with phenol) or 1×DMEM (without phenol red) containing 10% fetal bovine serum, 1% penicillin-streptomycin, 2% L-glutamine and 1×ITS. ID8^pten−/−p53−/−cells were a kind gift from Dr. Ian McNeish (Imperial College, London). For generation of STING over expressing cell lines −Myc-CAP^pten+/+ and ID8^pten−/− cells were transfected with commercial available plasmid (DC-Mm22462-SH02, Genecoepia™), sorted and expanded as per protocol. […]

[1] = IC90 concentrations stated for in vitro/ex vivo drug treatments; details: FIG. 50, Myc-CAP-PTEN^−/− tumor suspensions; read-out: IC90 concentration
[2] = tested on: single cell suspensions derived from Myc-CAP (STING^lo) tumors; assay: Ex vivo reconstitution assay, IFNβ ELISA; assay type: cell-based, mouse; details: ex vivo
Protocol: FIGS. 15A-15E. Differential STING pathway activation within B6-Myc (STING^hi) cell lines and BMDMs relative to Myc-CAP (STING^lo) cells. (15A, 15B) The indicated cancer cell lines and BMDMs were treated with DMXAA (mouse STING agonist) for 1 and 24 hours, respectively, and protein extracts were interrogated for cGAS/STING pathway activation with the indicated antibodies by Western blotting. Supernatants were collected from for IFNβ1 ELISA following 36 hours of treatment with DMXAA (15C, 15D). (15E) Syngeneic Myc-CAP (STING^lo) tumors were processed into single cell suspensions and used for phycoerythrin-based sorting of CD45+ cellular fractions. Equal numbers of cells from these fractions were stimulated with DMXAA. Supernatants were collected at 36 hrs for detection of IFNB1 by ELISA; n=3 independent experiments; Significance/p-values were calculated by one-way Anova (for 15C & 15E) or paired t-test (for 15D); TAM=tumor associated macrophage; s.e.=short exposure; l.e.=long exposure.
FIGS. 29A-29M. PARPi alone induces DNA DSBs, but not apoptosis even in combination with PI3Ki in Myc-CAP (STING^lo) cancer cells; PARPi/PI3Ki combination induces intracellular DNA DSBs and proportionate release of MV surface-associated DNA DSBs from B6-Myc (STINGhi) cancer cells without affecting cellular viability; PARPi/PI3K treatment activates tumor-cell extrinsic cGAS/STING pathway within TAMs in vivo via MV surface-associated DNA DSBs released from tumor cells. Myc-CAP cancer cells were treated with the indicated drugs singly or in combination for 36 hours. (29A) Cells were stained with anti-mouse specific p-γH2AX antibody and a fluorescently labeled secondary antibody for determination of DNA DSBs, which were quantified by confocal microscopy. (29B) Protein extracts from cells in 29A were analyzed for the indicated pharmacodynamic biomarkers by western blotting; (29C) Annexin V-PI staining was done to assess frequency of live cells (Annexin V^− PI^−) following drug treatment. (29D) Ultracentrifugation was utilized to purify microvesicles (MVs) from supernatants in treatment groups in (29A) and associated DNA DSBs was quantified by Nanodrop®. Independent experiments n=2. (29E) Ultracentrifugation was utilized to purify MVs from supernatants in indicated treatment groups in FIG. 17A, and associated DNA DSBs were quantified by Nanodrop®; n=2 independent experiments. (29F) Syngeneic mice were engrafted with Myc-CAP (STING^lo) cells, and tumors were harvested when the tumor volume reached 400 mm^3. Single cell suspensions of the tumors were treated with the indicated drug(s), in the presence or absence of GW4869 (MV biogenesis inhibitor). (29G) Bone marrow derived macrophage (BMDMs) were co-cultured for 30 hours with supernatants (−/+ exogenous 50 units of DNase I pre-treatment for 30 minutes) from Myc-CAP cells that were treated with the indicated drug(s) for 36 hours. (29H) cGAMP (10 μg/mL) was pre-incubated with 10 units of DNAse I or mock control for 30 minutes and then added to BMDMs for 30 hours. (29I-29L) STING^+/+/STING^−/− BMDMs were co-cultured for 36 hours with supernatants from Myc-CAP and B6-Myc cancer cells that were treated with the indicated drug(s) for 36 hours. Supernatants were collected from 29F-29L at the end of treatment and analyzed for IFNβ1 by ELISA. […] Tumor volume was recorded daily for duration of experiment. […] Significance/p-values were calculated by one-way ANOVA. […]

[3] = tested on: Myc-CAP (STING^lo) tumors; assay: Myc-CAP syngeneic tumor growth; assay type: in vivo, mouse; details: for effect of concomitant agent on anti-tumor response elicited by degarelix/rucaparib/buparlisib (ADT/PARPi/PI3Ki): syngeneic mice
Protocol: FIGS. 25A and 25B. […] (25A-25B) Myc-CAP (STING^lo) tumor-bearing syngeneic mice were treated with the indicated drug(s) until untreated tumors reached approx. 2500 mm^3. Tumor volume curves for duration of treatment are shown.
FIGS. 26A-26D. […] Immunodeficient athymic nude (26A) and NOD-SCID (26B) mice were engrafted with Myc-CAP (STING^lo) tumors and treated with the indicated drug(s) until untreated tumors reached approx. 2000 mm^3. Tumor volume curves for duration of treatment are shown. For 26A-26B, n=3-4 mice per group. (26C-26D) Single-cell suspensions were generated from harvested tumors and analyzed by flow cytometry for the indicated immune cell populations and their activation states. Data are represented relative to CD45+ immune cells. For 26C-26D, n=3-5 animals per treatment group from 2 independent experiments. Significance/p-values were calculated by […].
FIGS. 29A-29M. […] Myc-CAP cancer cells were treated with the indicated drugs singly or in combination for 36 hours. (29A) Cells were stained with anti-mouse specific p-γH2AX antibody and a fluorescently labeled secondary antibody for determination of DNA DSBs, which were quantified by confocal microscopy. (29B) Protein extracts from cells in 29A were analyzed for the indicated pharmacodynamic biomarkers by western blotting; (29C) Annexin V-PI staining was done to assess frequency of live cells (Annexin V^− PI^−) following drug treatment. (29D) Ultracentrifugation was utilized to purify microvesicles (MVs) from supernatants in treatment groups in (29A) and associated DNA DSBs was quantified by Nanodrop®. Independent experiments n=2. (29E) Ultracentrifugation was utilized to purify MVs from supernatants in indicated treatment groups in FIG. 17A, and associated DNA DSBs were quantified by Nanodrop®; n=2 independent experiments. (29F) Syngeneic mice were engrafted with Myc-CAP (STING^lo) cells, and tumors were harvested when the tumor volume reached 400 mm^3. Single cell suspensions of the tumors were treated with the indicated drug(s), in the presence or absence of GW4869 (MV biogenesis inhibitor). (29G) Bone marrow derived macrophage (BMDMs) were co-cultured for 30 hours with supernatants (−/+ exogenous 50 units of DNase I pre-treatment for 30 minutes) from Myc-CAP cells that were treated with the indicated drug(s) for 36 hours. (29H) cGAMP (10 μg/mL) was pre-incubated with 10 units of DNAse I or mock control for 30 minutes and then added to BMDMs for 30 hours. (29I-29L) STING^+/+/STING^−/− BMDMs were co-cultured for 36 hours with supernatants from Myc-CAP and B6-Myc cancer cells that were treated with the indicated drug(s) for 36 hours. Supernatants were collected from 29F-29L at the end of treatment and analyzed for IFNβ1 by ELISA. (29M) Myc-CAP (STING^lo) tumor-bearing mice were treated with the indicated drug(s) until tumors first reached approx. 2500 mm^3. For the degerelix/rucaparib/buparlisib combination, additional cohorts of mice underwent concomitant treatment with STING antagonist H-151 or GW4869. Tumor volume was recorded daily for duration of experiment. For in vitro experiments, n=2 independent experiments and for in vivo experiments n=3-4 animals /group.

BMDMs = assay: BMDM co-culture with supernatants from drug-treated cancer cells; assay type: cell-based, mouse; details: cGAMP 10 μg/mL, 30 hours
Excerpt: FIGS. 29A-29M. PARPi alone induces DNA DSBs, but not apoptosis even in combination with PI3Ki in Myc-CAP (STING^lo) cancer cells; PARPi/PI3Ki combination induces intracellular DNA DSBs and proportionate release of MV surface-associated DNA DSBs from B6-Myc (STINGhi) cancer cells without affecting cellular viability; PARPi/PI3K treatment activates tumor-cell extrinsic cGAS/STING pathway within TAMs in vivo via MV surface-associated DNA DSBs released from tumor cells. Myc-CAP cancer cells were treated with the indicated drugs singly or in combination for 36 hours. (29A) Cells were stained with anti-mouse specific p-γH2AX antibody and a fluorescently labeled secondary antibody for determination of DNA DSBs, which were quantified by confocal microscopy. (29B) Protein extracts from cells in 29A were analyzed for the indicated pharmacodynamic biomarkers by western blotting; (29C) Annexin V-PI staining was done to assess frequency of live cells (Annexin V^− PI^−) following drug treatment. (29D) Ultracentrifugation was utilized to purify microvesicles (MVs) from supernatants in treatment groups in (29A) and associated DNA DSBs was quantified by Nanodrop®. Independent experiments n=2. (29E) Ultracentrifugation was utilized to purify MVs from supernatants in indicated treatment groups in FIG. 17A, and associated DNA DSBs were quantified by Nanodrop®; n=2 independent experiments. […]

| SMILES | IC90 [1] [µM] | effect of concomitant agent on anti-tumor response elicited by degarelix/rucaparib/buparlisib (ADT/PARPi/PI3Ki) [3] | also measured |
| --- | --- | --- | --- |
| Cc1c(Cn2c(C)nc3c(C(=O)O)cc(N4CCOCC4)cc32)cccc1C(F)(F)F [GSK771] | 0.5 |  | STING expression (western blotting) (Myc-CAP-PTEN^−/− cells): restored |
| O=C(/C=C/c1ccc(/C=C/C(=O)Nc2ccc(C3=NCCN3)cc2)cc1)Nc1ccc(C2=NCCN2)cc1 [GW4869] |  | abrogated the anti-tumor response; also recorded: significant abrogation | effect of concomitant agent on IFNβ / Type I IFN production following rucaparib/buparlisib (PARPi/PI3Ki) [2]: abolished the IFNβ production; also recorded: Significant down-regulation of Type I IFN production |
| CCc1ccc(NC(=O)Nc2c[nH]c3ccccc23)cc1 [H-151] |  | abrogated the anti-tumor response | effect of concomitant agent on anti-tumor response elicited by PARPi/PI3Ki ([3]; c-myc driven murine PC models, immunocompetent mice): abrogated |
| C[C@H](NC(=O)c1c(N)nn2cccnc12)c1cc2cccc(C#Cc3cnn(C)c3)c2c(=O)n1-c1ccccc1 [IPI549] | 0.5 |  |  |
| Nc1nc2c(ncn2[C@@H]2O[C@@H]3COP(=O)(O)O[C@H]4[C@@H](O)[C@H](n5cnc6c(N)ncnc65)O[C@@H]4COP(=O)(O)O[C@@H]2[C@@H]3O)c(=O)[nH]1 [cGAMP, cyclic guanosine monophosphate-adenosine monophosphate] |  |  | Type I IFN production within BMDMs after DNase I pre-treatment of the agent (BMDMs): did not abrogate the Type I IFN production |

From patent publication US20210017607A1, “Methods of Predicting Responsiveness to Cancer Therapies” (The University of Chicago, priority 2019, published 2021)
